# Source: US20130101684A1, “Compounds, Compositions, And Methods For Reducing Or Eliminating Bitter Taste” (Chromocell Corporation, priority 2010, published 2013)
# Like-named read-outs stand apart in the source and are kept apart here.
# Experiments:
# Assay type in all cases: in vivo, humans
# [1] = tested on: bitter taste of an aqueous solution of KCl; test: Sip and spit taste test of aqueous KCl test solutions, bitterness rated 0-15 against KCl solution standards; conditions: aqueous KCl 4.85 g/L, 1% EtOH, human panel, vs KCl solution standard, dash = at none of the tested conc.
# Description: Edible KCl solution compositions (“KCl test solutions”) were prepared by first dissolving varying amounts of the test compounds in an amount of ethanol or water (depending on the solubility of the compound) to create a 5 mg/mL stock compound solution. An amount of this stock compound solution is then added to an aqueous KCl solution. Enough EtOH is then added to the resulting stock compound/KCl solution so that the final KCl test solution contains 1% EtOH. KCl solution standards were similarly prepared by dissolving various amounts of KCl in water and ethanol without adding any test compound. […] The effect of the test compounds on the perception of the bitter taste of an aqueous solution of KCl in humans was evaluated using a “sip and Spit” test as follows. A set of KCl solutions standards was developed and each standard solution was assigned a bitterness taste score of 0-15 (corresponding to aqueous KCl concentrations of 0 mM-120 mM). Panelists were trained to recognize these standards. In addition, before each day of testing, panelists were tested to see if they could determine differences in taste between the standard solutions, if a panelist was unable to recognize a change in KCl concentration, they were excluded from the panel for that day. In a blind taste test, panelists were asked to compare the bitter taste of a small quantity (e.g. 8 ml) of each of the KCl Test Solutions to the taste of a KCl solution standard, without swallowing (see, e.g., Table 1). Specifically, panelists were asked to rate the bitterness of each KCl Test Solution on a scale of 0-15 using the same scale developed for the KCl solution standards. Each sample was tested in 2-4 discrete taste test experiments. Panelists were asked to rinse with water, eat a cracker, and wait approximately 10 minutes between samples.
# [2] = tested on: bitter taste of KCl foodstuff slurries; test: Two-alternative forced choice (2AFC) sip and spit test of KCl turkey foodstuff slurries; conditions: turkey slurry with KCl 1.6%, 1% EtOH, 2AFC vs KCl slurry standard, dash = at none of the tested conc.; for minimal effective concentration: Homo sapiens
# Description: Edible KCl food compositions (“KCl test foodstuff slurries”) were prepared as follows. Dehydrated, salt-free turkey powder was weighed and mixed with various amounts of KCl and/or NaCl and then solubilized with boiling water to create a homogenized solubilized turkey slurry. Varying amounts of the test compounds were dissolved in an amount of ethanol or water (depending on the solubility of the compound) to create a 5 mg/mL stock compound solution. An amount of this stock compound solution was then added to the turkey slurry. Enough EtOH is then added to the resulting stock compound/turkey slurry so that the slurry contains 1% EtOH. The slurry was again homogenized by boiling and mixing and allowed to cool to yield the final KCl test foodstuff slurry for taste testing. KCl foodstuff slurry standards were similarly prepared without any test compound. […] The effect of the test compounds on the perception of the bitter taste of KCl foodstuff slurries in humans was evaluated using a two-alternative-forced-choice “sip and spit” test as follows. In a blind taste test, panelists received two portions of turkey slurry—one portion being the KCl foodstuff slurry standard and the other being one of the KCl test foodstuff slurries (each prepared as described in Example 5). The panelists tasted each of the portions by sipping and spitting. Each sample was tested in 2-4 discrete taste test experiments. Panelists were asked to rinse with water, eat a cracker, and wait about 10 minutes between samples. In each case, the panelists were asked to compare the bitter taste of the two turkey samples to each other (i.e. panelists were asked to indicate which sample was less bitter).
# [3] = tested on: bitter taste of an aqueous solution of potassium lactate; test: Sip and spit taste test of aqueous potassium lactate test solutions; conditions: aqueous potassium lactate (KLac) 41 g/L, 1% EtOH, human panel, dash = at none of the tested conc.
# Description: A set of KCl solutions standards was developed and each standard solution was assigned a bitterness taste score of 0-15 (corresponding to aqueous KCl concentrations of 0 mM-120 mM). Panelists were trained to recognize these standards. In addition, before each day of testing, panelists were tested to see if they could determine differences in taste between the standard solutions, if a panelist was unable to recognize a change in KCl concentration, they were excluded from the panel for that day. In a blind taste test, panelists were asked to compare the bitter taste of a small quantity (e.g. 8 ml) of each of the KCl Test Solutions to the taste of a KCl solution standard, without swallowing (see, e.g., Table 1). Specifically, panelists were asked to rate the bitterness of each KCl Test Solution on a scale of 0-15 using the same scale developed for the KCl solution standards. Each sample was tested in 2-4 discrete taste test experiments. Panelists were asked to rinse with water, eat a cracker, and wait approximately 10 minutes between samples. Edible potassium lactate solution compositions (“potassium lactate test solutions”) were prepared by first dissolving varying amounts of the test compounds in an amount of ethanol or water (depending on the solubility of the compound) to create a 5 mg/mL stock compound solution. An amount of this stock compound solution is then added to an aqueous potassium lactate solution. Enough EtOH is then added to the resulting stock compound/potassium lactate solution so that the final potassium lactate test solution contains 1% EtOH. Potassium lactate solution standards were similarly prepared by dissolving various amounts of potassium lactate in water and ethanol without adding any test compound. […] The effect of the test compounds on the perception of the bitter taste of an aqueous solution of potassium lactate in humans was evaluated using the “sip and spit” test described in Example 2.
# [4] = read-out: Conc. Where Decrease in Bitter Taste Discerned and p ≦ 0.1
# [5] = read-out: Conc. at Which At Least 50% of Panelist Discerned Decrease in Bitter Taste
# [6] = read-out: Conc. at Which At Least 50% of Panelist Discerned Decrease in Bitter Taste and p ≦ 0.1
# [7] = read-out: Conc. Where Decrease in Bitter Taste Was Discerned
structure (smiles),measurement,setting,value
COc1cc(/C=N/c2ccccc2C)ccc1O [Compound 2],minimal effective concentration,[1]; [4],1 µg/mL
same,minimal effective concentration,[2]; [5],10 µg/mL
COc1cccc(CNc2cc(C)ccc2C)c1OC [Compound 15],minimal effective concentration,[1]; [4],10 µg/mL
same,minimal effective concentration,[2]; [5],10 µg/mL
same,minimal effective concentration,[2]; [6],10 µg/mL
COc1ccc(CNc2ccc(Br)cc2C)cc1OC [Compound 8],minimal effective concentration,[1]; [7],1 µg/mL
COc1ccc(NCc2ccccc2C)cc1OC [Compound 20],minimal effective concentration,[1]; [4],1 µg/mL
same,minimal effective concentration,[3]; [4],5 µg/mL
Cc1c2ccccc2nc2c(F)c(N3CCN(C)CC3)c(F)c(F)c12 [Compound 44],minimal effective concentration,[1]; [4],10 µg/mL
same,minimal effective concentration,[1]; [7],10 µg/mL
same,minimal effective concentration,[3]; [4],10 µg/mL
same,minimal effective concentration,[2]; [5],10 µg/mL
Cc1ccc2nc3c(F)c(N4CCOCC4)c(F)c(F)c3c(C)c2c1 [Compound 46],minimal effective concentration,[1]; [4],1 µg/mL
same,minimal effective concentration,[3]; [7],30 µg/mL
same,minimal effective concentration,[2]; [5],1 µg/mL
CC(=O)Oc1ccc(C2Nc3c(C(=O)O)cccc3C3C=CCC32)cc1 (centres unmarked) [Compound 39],minimal effective concentration,[2]; [6],10 µg/mL
COC(=O)c1ccccc1NC(=O)c1c(Cl)cnn1C [Compound 27],minimal effective concentration,[2]; [5],30 µg/mL
Cc1nc2c(C)ccc(C)c2c(O)c1CN1CCN(c2ccccc2)CC1 [Compound 47],minimal effective concentration,[2]; [5],10 µg/mL
same,minimal effective concentration,[2]; [6],10 µg/mL
CCOc1cc(CNc2ccccc2)ccc1OC [Compound 10],Conc. Where Decrease in Bitter Taste Discerned and p ≦ 0.1,[1],1 ppm
CCn1ccc(C(=O)Nc2cc(OC)c(OC)cc2C(=O)OC)n1 [Compound 35],minimal effective concentration,[1]; [4],1 µg/mL
same,minimal effective concentration,[1]; [7],1 µg/mL
same,minimal effective concentration,[2]; [5],10 µg/mL
COc1ccccc1CNc1cc(C)ccc1OC [Compound 19],minimal effective concentration,[1]; [4],1 µg/mL
same,minimal effective concentration,[1]; [7],1 µg/mL
same,minimal effective concentration,[2]; [6],10 µg/mL
CCOc1cc(CNc2ccccc2SC)ccc1OC [Compound 4],minimal effective concentration,[1]; [4],10 µg/mL
CCOc1cc(CNc2cc(C)ccc2C)ccc1OC [Compound 12],minimal effective concentration,[1]; [4],10 µg/mL
same,minimal effective concentration,[2]; [5],10 µg/mL
CCn1ccc(C(=O)Nc2ccccc2C(=O)OC)n1 [Compound 36],minimal effective concentration,[1]; [4],10 µg/mL
same,minimal effective concentration,[2]; [5],10 µg/mL
COc1ccc(OC)c(CNc2cc(C)ccc2C)c1 [Compound 7],Conc. Where Decrease in Bitter Taste Discerned and p ≦ 0.1,[1],1 ppm
same,Conc. Where Decrease in Bitter Taste Was Discerned,[1],1 ppm
same,Conc. at Which At Least 50% of Panelist Discerned Decrease in Bitter Taste,[2],1 ppm
COC(=O)c1cccc2c1NC(c1ccc(Cl)cc1)C1CC=CC21 (centres unmarked) [Compound 42],minimal effective concentration,[2]; [5],1 µg/mL
CCCC(=O)Nc1ccc(C)c(Cl)c1 [Compound 50],minimal effective concentration,[1]; [7],1 µg/mL
CCn1ncc(Cl)c1C(=O)Nc1cc(Cl)ccc1Cl [Compound 28],Conc. at Which At Least 50% of Panelist Discerned Decrease in Bitter Taste,[2],10 ppm
COc1cc(CNc2cccc(C)c2C)ccc1OCc1ccccc1 [Compound 22],minimal effective concentration,[1]; [4],1 µg/mL
CCOc1ccc(CNc2ccccc2C)cc1OC [Compound 3],minimal effective concentration,[1]; [4],2 µg/mL
same,minimal effective concentration,[1]; [7],2 µg/mL
same,minimal effective concentration,[3]; [4],1 µg/mL
COc1ccc(CNc2cc(C)ccc2C)cc1OC [Compound 14],Conc. Where Decrease in Bitter Taste Discerned and p ≦ 0.1,[1],1 ppm
same,Conc. Where Decrease in Bitter Taste Was Discerned,[3],5 ppm
COc1cc(CO)ccc1OCc1ccccc1C [Compound 1],minimal effective concentration,[2]; [5],1 µg/mL
Cn1ncc(Cl)c1C(=O)Nc1ccccc1C(N)=O [Compound 33],minimal effective concentration,[1]; [7],1 µg/mL
COC(=O)c1ccc(C)c(NC(=O)c2c(Cl)cnn2C)c1 [Compound 31],Conc. at Which At Least 50% of Panelist Discerned Decrease in Bitter Taste,[2],1 ppm
CCOc1ccc(CNc2ccc(C)cc2C)cc1OC [Compound 17],Conc. Where Decrease in Bitter Taste Was Discerned,[1],1 ppm
same,Conc. Where Decrease in Bitter Taste Was Discerned,[3],1 ppm
O=C(O)c1cc(Br)cc2c1NC(c1ccc(Cl)cc1)C1CC=CC21 (centres unmarked) [Compound 43],minimal effective concentration,[1]; [7],1 µg/mL
Cc1nc2c(C)cccc2c(O)c1CN1CCN(c2ccccc2)CC1 [Compound 48],minimal effective concentration,[1]; [4],1 µg/mL
same,minimal effective concentration,[3]; [4],1 µg/mL
same,minimal effective concentration,[3]; [7],1 µg/mL
same,minimal effective concentration,[2]; [5],10 µg/mL
Cc1c2ccccc2nc2c(F)c(N3CCCC3)c(F)c(F)c12 [Compound 45],minimal effective concentration,[1]; [4],0.1 µg/mL
same,minimal effective concentration,[2]; [5],1 µg/mL
CCn1ncc(Cl)c1C(=O)Nc1cccc(Cl)c1Cl [Compound 29],Conc. Where Decrease in Bitter Taste Discerned and p ≦ 0.1,[1],10 ppm
same,Conc. Where Decrease in Bitter Taste Was Discerned,[3],5 ppm
same,Conc. at Which At Least 50% of Panelist Discerned Decrease in Bitter Taste,[2],1 ppm
same,Conc. at Which At Least 50% of Panelist Discerned Decrease in Bitter Taste and p ≦ 0.1,[2],1 ppm
CCOc1cc(CNc2cccc(Cl)c2C)ccc1OC [Compound 6],minimal effective concentration,[1]; [7],1 µg/mL
Cc1ccc(NC(=O)CCOc2ccccc2)c(C)c1 [Compound 54],minimal effective concentration,[2]; [5],1 µg/mL
COc1ccc(NC(=O)CCOc2cccc(C)c2)cc1 [Compound 52],Conc. Where Decrease in Bitter Taste Discerned and p ≦ 0.1,[1],10 ppm
same,Conc. Where Decrease in Bitter Taste Discerned and p ≦ 0.1,[3],30 ppm
same,Conc. at Which At Least 50% of Panelist Discerned Decrease in Bitter Taste and p ≦ 0.1,[2],10 ppm
COc1cccc(CNc2cccc(C)c2)c1OC [Compound 5],minimal effective concentration,[1]; [7],10 µg/mL
